Reference: PMC9694544, “Conteltinib (CT-707) in patients with advanced ALK-positive non-small cell lung cancer: a multicenter, open-label, first-in-human phase 1 study” (BMC Medicine, 2022)

Columns and labels:
ALK L1196M = ALK L1196M (Homo sapiens, UniProt Q9UM73, L1196M); test: ALK enzymatic IC50, L1196M; type: biochemical
Source text: (§1) Supplement 12916_2022_2646_MOESM1_ESM.docx, table 1 | column: ALK Enzymatic IC50 (nM)

ALK G1202R = ALK G1202R (Homo sapiens, UniProt Q9UM73, G1202R); test: ALK enzymatic IC50, G1202R; type: biochemical
Source text: as §1

ALK R1275Q = ALK R1275Q (Homo sapiens, UniProt Q9UM73, R1275Q); test: ALK enzymatic IC50, R1275Q; type: biochemical
Source text: as §1

[1] = tested on: brain metastasis of ALK-positive NSCLC; test: Intracranial response in patients with measurable brain metastatic lesions; type: in vivo, human
FAK = tested on: FAK; set-up: method as in PMID 27638856; conditions: less potent than the inhibition to ALK; cited from earlier work
Pyk2 = tested on: Pyk2; set-up: method as in PMID 27638856; conditions: less potent than the inhibition to ALK; cited from earlier work
[2] = tested on: xenograft models of ALK-positive NSCLC; conditions: crizotinib-sensitive and crizotinib-resistant tumors; cited from earlier work

SMILES: COc1cc(N2CCC(N3CCN(C)CC3)CC2)ccc1Nc1nc2c(c(Nc3ccccc3S(=O)(=O)NC(C)C)n1)CCN2 [Conteltinib]
- IC50 (ALK L1196M): 3.8 nM
- IC50 (ALK G1202R): 6.3 nM
- IC50 (ALK R1275Q): 1.2 nM
- Intracranial DCR (95% CI) ([1]; 300 mg BID (n=1)): 100.0% (2.5-100.0)
- Intracranial ORR (95% CI) ([1]; 300 mg BID (n=1)): 0.0% (0.0-97.5)
- Intracranial DCR (95% CI) ([1]; 450 mg QD (n=2)): 100.0% (15.8-100.0)
- Intracranial ORR (95% CI) ([1]; 450 mg QD (n=2)): 50% (1.3-98.7)
- Intracranial DCR (95% CI) ([1]; 600 mg QD (n=3)): 66.7% (9.4-99.2)
- Intracranial ORR (95% CI) ([1]; 600 mg QD (n=3)): 33.3% (0.8-90.6)
- FAK inhibition (FAK): inhibits
- Pyk2 inhibition (Pyk2): inhibits
- anti-tumor activity in xenograft models [2]: marked anti-tumor activity
